What is called IC50 is the concentration needed to halve the response being measured.

Each structure is given as a SMILES string.

For the assay, the target named is T1, histamine H4 receptor (Homo sapiens, UniProt Q9H3N8).
T1 construct: expressed in transfected cells; host or cells: HEK293SFM cells (membrane preparation)
T1 sequence (Q9H3N8 whole entry): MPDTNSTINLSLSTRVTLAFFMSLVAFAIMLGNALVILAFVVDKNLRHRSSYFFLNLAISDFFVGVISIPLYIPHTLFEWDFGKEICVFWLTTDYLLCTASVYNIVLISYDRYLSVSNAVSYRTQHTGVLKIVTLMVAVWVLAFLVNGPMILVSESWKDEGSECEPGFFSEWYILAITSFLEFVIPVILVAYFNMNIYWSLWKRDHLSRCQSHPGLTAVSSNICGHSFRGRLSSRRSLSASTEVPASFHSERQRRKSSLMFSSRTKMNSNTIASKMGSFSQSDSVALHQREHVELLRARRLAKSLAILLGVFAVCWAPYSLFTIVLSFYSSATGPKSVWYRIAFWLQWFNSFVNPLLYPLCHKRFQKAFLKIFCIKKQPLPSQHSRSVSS
Description: H4 Membrane Binding Assay (3H-Histamine displacement). To be noted: membranes of recombinant HEK293SFM cells, 10 nM 3H-Histamine, 1.5 hr at room temperature. The method, boiled down:
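Radioligand is [3H]-histamine; 1000× unlabeled ligand sets nonspecific binding. Receptor source: membrane pellets from HEK293SFM cells carrying human H4 or other histamine subtypes (human H1–H3, mouse H4), in 50 mM Tris-HCl pH 7.5. Filtration through PEI-treated GF/B filters, then scintillation counting.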
For the compound `CN1CCN(c2nc(N)nc3cc(C(=O)NC(C#N)c4ccccc4)ccc23)CC1` (centres unmarked) [Example 129, 2-Amino-N-[cyano(phenyl)methyl]-4-(4-methylpiperazin-1-yl)quinazoline-7-carboxamide], the IC50 amounted to 156 nM. The figure for `COC(=O)NC(C)CC(=O)N1CCc2ccc(-c3cc(N4CCN(C)CC4)nc(N)n3)cc2C1` (centres unmarked) [Example 113, Methyl{3-[7-[2-amino-6-(4-methylpiperazin-1-yl)pyrimidin-4-yl]-3,4-dihydroisoquinolin-2(1H)-yl]-1-methyl-3-oxopropyl}carbamate] is 147 nM; for `CN1CCN(c2cc(-c3ccc4c(c3)CN(C(=O)Nc3ccccc3)CC4)nc(N)n2)CC1` [Example 12, 7-[2-Amino-6-(4-methylpiperazin-1-yl)pyrimidin-4-yl]-N-phenyl-3,4-dihydroisoquinoline-2(1H)-carboxamide] it is 23.4 nM; for `CN1CCN(c2cc(-c3ccc4c(c3)CN(C(=O)C3CCC3)CC4)nc(N)n2)CC1` [Example 3, 4-[2-(Cyclobutylcarbonyl)-1,2,3,4-tetrahydroisoquinolin-7-yl]-6-(4-methylpiperazin-1-yl)pyrimidin-2-amine] it is 170 nM. The figure for `CN1CCN(c2nc(N)nc3cc(C(=O)NC(Cc4cccc(Oc5nsnc5Cl)c4)C(=O)N(C)C)ccc23)CC1` (centres unmarked) [Example 168, 2-Amino-N-[1-{3-[(4-chloro-1,2,5-thiadiazol-3-yl)oxy]benzyl}-2-(dimethylamino)-2-oxoethyl]-4-(4-methylpiperazin-1-yl)quinazoline-7-carboxamide] is 9.6 nM. As to `CN1CCN(c2nc(N)nc3cc(C(=O)NC(Cc4ccc(-c5ccccc5)cc4)c4nccs4)ccc23)CC1` (centres unmarked) [Example 151, 2-amino-N-[2-biphenyl-4-yl-1-(1,3-thiazol-2-yl)ethyl]-4-(4-methylpiperazin-1-yl)quinazoline-7-carboxamide], the IC50 was found to be 69 nM. The figure for `CC(NC(=O)c1ccc2c(N3CCN(C)CC3)nc(N)nc2c1)c1cccc(OCc2cccc(C#N)c2)c1` (centres unmarked) [Example 201, 2-Amino-N-(1-{3-[(3-cyanobenzyl)oxy]phenyl}ethyl)-4-(4-methylpiperazin-1-yl)quinazoline-7-carboxamide] is 14 nM.

On to `CN1CCN(c2nc(N)nc3cc(C(=O)N[C@@H](Cc4ccc(-c5ccccn5)cc4)C(=O)N(C)C)ccc23)CC1` [Example 160, 2-Amino-N-[(1S)-2-(dimethylamino)-2-oxo-1-(4-pyridin-2-ylbenzyl)ethyl]-4-(4-methylpiperazin-1-yl)quinazoline-7-carboxamide], for which the half-maximal inhibitory concentration (IC50) is 52 nM. With `CN1CCN(c2nc(N)nc3cc(C(=O)NC(Cc4cccc(Oc5ccccc5)c4)C(=O)N(C)C)ccc23)CC1` (centres unmarked) [Example 146, 2-Amino-N-[2-(dimethylamino)-2-oxo-1-(3-phenoxybenzyl)ethyl]-4-(4-methylpiperazin-1-yl)quinazoline-7-carboxamide], the 50% inhibitory concentration (IC50) was determined as 65 nM. In the case of `CO[C@H]1CCCC[C@H]1NC(=O)N1CCc2ccc(-c3cc(N4CCN(C)CC4)nc(N)n3)cc2C1` (relative stereo) [Example 55, 7-[2-Amino-6-(4-methylpiperazin-1-yl)pyrimidin-4-yl]-N-(cis-2-methoxycyclohexyl)-3,4-dihydroisoquinoline-2(1H)-carboxamide], the IC50 amounted to 120 nM. `CN1CCN(c2cc(-c3ccc4c(c3)CN(C(=O)CC(C)(C#N)C3CC3)CC4)nc(N)n2)CC1` (centres unmarked) [Example 123, 4-[7-[2-Amino-6-(4-methylpiperazin-1-yl)pyrimidin-4-yl]-3,4-dihydroisoquinolin-2(1H)-yl]-2-cyclopropyl-2-methyl-4-oxobutanenitrile]: the 50% inhibitory concentration (IC50) worked out at 105 nM.

On to `CN1CCN(c2cc(-c3ccc4c(c3)CN(C(=O)Nc3ccccc3F)CC4)nc(N)n2)CC1` [Example 99, 7-[2-Amino-6-(4-methylpiperazin-1-yl)pyrimidin-4-yl]-N-(2-fluorophenyl)-3,4-dihydroisoquinoline-2(1H)-carboxamide], for which the half-maximal inhibitory concentration (IC50) is 31 nM. Turning to `CN1CCN(c2cc(-c3ccc4c(c3)CN(C(=O)Nc3nc(-c5ccc(Cl)cc5)cs3)CC4)nc(N)n2)CC1` [Example 48, 7-[2-Amino-6-(4-methylpiperazin-1-yl)pyrimidin-4-yl]-N-[4-(4-chlorophenyl)-1,3-thiazol-2-yl]-3,4-dihydroisoquinoline-2(1H)-carboxamide], the IC50 came to 99 nM.

With `CC(C(=O)N1CCc2ccc(-c3cc(N4CCN(C)CC4)nc(N)n3)cc2C1)C1CCCCC1` (centres unmarked) [Example 102, 4-[2-(2-Cyclohexylpropanoyl)-1,2,3,4-tetrahydroisoquinolin-7-yl]-6-(4-methylpiperazin-1-yl)pyrimidin-2-amine], the IC50 worked out at 83 nM.

The values above are taken from patent US8481732B2 (Incyte Corporation, priority 2009, dated 2013).
